Data as given in publication PMC6151782, “Synthesis, In Vitro α-Glucosidase Inhibitory Activity and Molecular Docking Studies of Novel Benzothiazole-Triazole Derivatives” (Molecules : A Journal of Synthetic Chemistry and Natural …, 2017).

Assays:
[1] = target: T1, Baker’s yeast α-glucosidase enzyme (Saccharomyces cerevisiae, UniProt P53341); experiment: biochemical
T1 construct: purchased
Text: The sample solution was replaced by DMSO as a control. Acarbose was used as a positive control.

T1 sequence (P53341 whole entry): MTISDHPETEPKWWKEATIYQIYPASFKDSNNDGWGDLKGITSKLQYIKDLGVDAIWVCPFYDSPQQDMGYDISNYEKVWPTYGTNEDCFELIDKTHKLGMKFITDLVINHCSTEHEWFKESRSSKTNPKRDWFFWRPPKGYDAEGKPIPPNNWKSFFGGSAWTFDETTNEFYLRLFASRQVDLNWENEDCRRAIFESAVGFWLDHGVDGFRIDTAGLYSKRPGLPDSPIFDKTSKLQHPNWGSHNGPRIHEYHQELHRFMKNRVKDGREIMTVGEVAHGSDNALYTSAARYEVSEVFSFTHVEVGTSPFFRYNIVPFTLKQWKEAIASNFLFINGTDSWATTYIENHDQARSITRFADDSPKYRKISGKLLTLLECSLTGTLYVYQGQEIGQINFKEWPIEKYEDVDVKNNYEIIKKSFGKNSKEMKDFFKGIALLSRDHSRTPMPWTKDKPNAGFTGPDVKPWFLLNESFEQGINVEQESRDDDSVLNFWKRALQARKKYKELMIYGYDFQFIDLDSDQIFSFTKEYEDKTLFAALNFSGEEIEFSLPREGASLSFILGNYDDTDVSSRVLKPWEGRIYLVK

Row | SMILES | IC50 [1] [µM] | melting point [°C]
1 | Brc1ccc(Cn2cc(CSc3nc4ccccc4s3)nn2)cc1 [Compound 6a, 2-(((1-(4-Bromobenzyl)-1H-1,2,3-triazol-4-yl)methyl)thio)benzo[d]thiazole] | 28.7 | 112 to 114
2 | Clc1ccccc1Cn1cc(CSc2nc3ccccc3s2)nn1 [Compound 6b, 2-(((1-(2-Chlorobenzyl)-1H-1,2,3-triazol-4-yl)methyl)thio)benzo[d]thiazole] | > 100 | 110 to 111
3 | Brc1ccccc1Cn1cc(CSc2nc3ccccc3s2)nn1 [Compound 6c, 2-(((1-(2-Bromobenzyl)-1H-1,2,3-triazol-4-yl)methyl)thio)benzo[d]thiazole] | 37.4 | 104 to 106
4 | Fc1cccc(Cn2cc(CSc3nc4ccccc4s3)nn2)c1 [Compound 6d, 2-(((1-(3-Fluorobenzyl)-1H-1,2,3-triazol-4-yl)methyl)thio)benzo[d]thiazole] | 61.1 | 112 to 114
5 | Clc1ccc(Cn2cc(CSc3nc4ccccc4s3)nn2)cc1 [Compound 6e, 2-(((1-(4-Chlorobenzyl)-1H-1,2,3-triazol-4-yl)methyl)thio)benzo[d]thiazole] | 27.4 | 119 to 120
6 | Fc1ccccc1Cn1cc(CSc2nc3ccccc3s2)nn1 [Compound 6f, 2-(((1-(2-Fluorobenzyl)-1H-1,2,3-triazol-4-yl)methyl)thio)benzo[d]thiazole] | > 100 | 86 to 88
7 | c1ccc(Cn2cc(CSc3nc4ccccc4s3)nn2)cc1 [Compound 6g, 2-(((1-Benzyl-1H-1,2,3-triazol-4-yl)methyl)thio)benzo[d]thiazole] | > 100 | 109 to 110
8 | CC(C)(C)c1ccc(Cn2cc(CSc3nc4ccccc4s3)nn2)cc1 [Compound 6i, 2-(((1-(4-(Tert-butyl)benzyl)-1H-1,2,3-triazol-4-yl)methyl)thio)benzo[d]thiazole] | 29.4 | 77 to 78
9 | Fc1ccccc1Cn1cc(CSc2nc3cc(Cl)ccc3s2)nn1 [Compound 6j, 5-Chloro-2-(((1-(2-fluorobenzyl)-1H-1,2,3-triazol-4-yl)methyl)thio)benzo[d]thiazole] | 45.9 | 115 to 117
10 | Clc1ccc2sc(SCc3cn(Cc4ccccc4Br)nn3)nc2c1 [Compound 6k, 2-(((1-(2-Bromobenzyl)-1H-1,2,3-triazol-4-yl)methyl)thio)-5-chlorobenzo[d]thiazole] | 48.4 | 119 to 120
11 | Clc1ccc2sc(SCc3cn(Cc4ccccc4Cl)nn3)nc2c1 [Compound 6l, 5-Chloro-2-(((1-(2-chlorobenzyl)-1H-1,2,3-triazol-4-yl)methyl)thio)benzo[d]thiazole] | 33.6 | 128 to 130
12 | Clc1ccc(Cn2cc(CSc3nc4cc(Cl)ccc4s3)nn2)cc1 [Compound 6m, 5-Chloro-2-(((1-(4-chlorobenzyl)-1H-1,2,3-triazol-4-yl)methyl)thio)benzo[d]thiazole] | 28.2 | 111 to 112
13 | Clc1ccc2sc(SCc3cn(Cc4ccc(Br)cc4)nn3)nc2c1 [Compound 6n, 2-(((1-(4-Bromobenzyl)-1H-1,2,3-triazol-4-yl)methyl)thio)-5-chlorobenzo[d]thiazole] | 28 | 114 to 116
14 | Clc1cc(Cl)cc(Cn2cc(CSc3nc4cc(Cl)ccc4s3)nn2)c1 [Compound 6o, 5-Chloro-2-(((1-(3,5-dichlorobenzyl)-1H-1,2,3-triazol-4-yl)methyl)thio)benzo[d]thiazole] | 22.3 | 124 to 126
15 | Fc1cccc(Cn2cc(CSc3nc4cc(Cl)ccc4s3)nn2)c1 [Compound 6p, 5-Chloro-2-(((1-(3-fluorobenzyl)-1H-1,2,3-triazol-4-yl)methyl)thio)benzo[d]thiazole] | 38.6 | 140 to 141
16 | Fc1ccc(Cn2cc(CSc3nc4cc(Cl)ccc4s3)nn2)cc1 [Compound 6q, 5-Chloro-2-(((1-(4-fluorobenzyl)-1H-1,2,3-triazol-4-yl)methyl)thio)benzo[d]thiazole] | 53.1 | 108 to 109
17 | Clc1ccc2sc(SCc3cn(Cc4ccccc4)nn3)nc2c1 [Compound 6r, 2-(((1-Benzyl-1H-1,2,3-triazol-4-yl)methyl)thio)-5-chlorobenzo[d]thiazole] | 44.4 | 142 to 144
